Assay results published in patent US9486440B2, “Uses of indole-ketones or indolidones as neuro-protective drugs” (UNIVERSITY OF MACAU, priority 2011, dated 2016).
“Also recorded” adds a separate entry of the source.

Columns and labels:
zebrafish larvae = experiment: Locomotion behavioral test of zebrafish larvae; format: in vivo; settings: for MPTP-induced deficit of swimming behavior (total distance travelled): 200 μM MPTP 2 days, then 10 μM MPTP plus drug 3 days, L-deprenyl 20 μM, L-dopa 150 μM
Method: (§1) Wild-type zebrafish (AB strain) and Tg (fli-1:EGFP) transgenic zebrafish were maintained as described in the Zebrafish Handbook (Westerfield, 1993). Zebrafish embryos were generated by natural pair-wise mating (3-12 months old) and raised at 28.5° C. in embryo medium (13.7 mM NaCl, 540 μM KCl, pH 7.4, 25 μM Na2HPO4, 44 μM KH2PO4, 300 μM CaCl2, 100 μM MgSO4, 420 μM NaHCO3, pH 7.4). […] An equal concentration of DMSO in embryo medium was used as vehicle control in each experiment.
Thus the MPTP exposure needs to last 5 day from 1 dpf. […] Thus subsequent locomotion behavioral studies were done with 200 μM MPTP for treatment for 2 days at 1 dpf then replacing insult with 10 μM MPTP for incubation for another 3 days.
(§2) After drug treatment, zebrafish larvae at 6 dpf were transferred into 96-well plates (1 fish/well and 12 larvae/group). Fishes responded with excessive stress reaction (such as rapid and disorganized swimming or immobility for 2 min) due to the handling and monitoring of the behavior were discarded. The experiments were performed in a calm enclosed area. The larvae were allowed to habituate to the new environment for 30 min prior to experiments. Behavior was monitored by an automated video tracking system (Viewpoint, ZebraLab, LifeSciences). The 96-well plates and camera were housed inside a Zebrabox and the swimming pattern of each fish was recorded for 10 min and repeated 3 times, once every other 10 min. The total distance moved was defined as the distance (in cm) that the fish had moved during one session (10 min).
Normally as late as 3 dpf, zebrafish larvae show very little spontaneous swimming, but by 5 dpf they spontaneously swim longer distances and independently search for food. The MPTP exposure therefore needs to last 5 days from 1 dpf. […] Thus subsequent locomotion behavioral studies were performed with 200 μM MPTP for 2-day treatment at 1 dpf then replacing with media containing 10 μM MPTP for another 3-day incubation.
as §2, with “The larvae were discarded due to” for “Fishes responded with”, “reaction to the handling and monitoring of behavior” for “reaction”, “min).” for “min) due to the handling and monitoring of the behavior were discarded.”, “sealed” for “enclosed”, “min. Swimming behavior” for “min prior to experiments. Behavior”, “for” for “repeated”

[1] = test system: intersegmental-vessel (ISV) formation; experiment: Intersegmental-vessel formation in Tg(fli-1:EGFP) zebrafish; format: in vivo; settings: 1 dpf embryos treated 48 hours; SU4312 3-30 μM, PTK787/ZK222584 0.3-3 μM, VRI 0.1-0.3 μM, SU5416 0.3-1 μM
Method: as §1
(§3) After drug treatment, zebrafish were removed from microplate and observed for gross morphological changes of blood vessel under a fluorescence microscope (Olympus am Motorized Inverted Microscope, Japan) equipped with a digital camera (DP controller, Soft Imaging System, Olympus). Images were analyzed with Axiovision 4.2 and Adobe Photoshop 7.0.
Wild-type zebrafish (AB strain) and Tg(fli-1:EGFP) transgenic zebrafish were maintained as described in the Zebrafish Handbook (Westerfield, 1993). Zebrafish embryos were generated by natural pair-wise mating (3-12 months old) and were raised at 28.5° C. in embryo medium (13.7 mM NaCl, 540 μM KCl, pH 7.4, 25 μM Na2HPO4, 44 μM KH2PO4, 300 μM CaCl2, 100 μM MgSO4, 420 μM NaHCO3, pH 7.4). […] Equal concentration of DMSO in embryo medium was used as vehicle control in each experiment.
as §3, with “from the” for “from”

| SMILES | MPTP-induced deficit of swimming behavior (total distance travelled) (zebrafish larvae) | swimming behavior of normal zebrafish larvae, drug alone (zebrafish larvae; without MPTP) | inhibition of intersegmental-vessel (ISV) formation [1] | swimming behavior of normal zebrafish larvae, drug alone (zebrafish larvae; zebrafish, in vivo) |
| --- | --- | --- | --- | --- |
| CN(C)c1ccc(C=C2C(=O)Nc3ccccc32)cc1 [SU4312, 3-[4-(dimethylamino)benzylidenyl]indolin-2-one] | ameliorated MPTP-induced deficit of swimming behavior | Neither SU4312 nor PTK787/ZK222584 treatment alone notably altered the swimming behavior | showed differential concentration-dependent inhibition of ISV formation | – |
| Clc1ccc(Nc2nnc(Cc3ccncc3)c3ccccc23)cc1 [PTK787/ZK222584] | but not PTK787/ZK222584 ameliorated MPTP-induced deficit of swimming behavior | – | showed differential concentration-dependent inhibition of ISV formation; also recorded: at 1 μM inhibited angiogenesis with the potency similar to that of SU4312 at 30 μM | Neither SU4312 nor PTK787/ZK222584 treatment alone notably altered the swimming behavior |
| Cc1cc(C)c(/C=C2\C(=O)Nc3ccccc32)[nH]1 [SU5416, (3Z)-3-[(3,5-dimethyl-1H-pyrrol-2-yl)methylidene]-1,3-dihydro-2H-indol-2-one] | ameliorated the MPTP-induced deficit of swimming behavior | – | did not show this activity | – |
